The results in this text go back to ChEMBL document CHEMBL1201862, “PubChem BioAssay data set” (2004).

Active and inactive are the calls of the source.

Test system in one assay: not listed separately
Put plainly: HEp-2 cell cytotoxicity, dose response, cytotoxicity control for RSV inhibitor project, HTS (AID 2410). The format is functional. Conditions: human respiratory syncytial virus.
`Oc1nc2cccc(F)c2n2cccc12`: the 50% cytotoxic concentration (CC50) (in general, the concentration giving 50% cytotoxicity) is 30 µM (active).

Consider `CCCCn1nc(NC(=O)c2cccs2)c2cc3ccccc3nc21`, for which the CC50 was 25.5 µM (active).

Test system in the next assay: not listed separately
In words: inhibitors of firefly luciferase expression or activity, dose response, H4 neuroglioma cells, luminescence (AID 1990). The format is functional, cell-based.
Details: not given
Take `CCn1cc(C(=O)N2CCN(c3ccc([N+](=O)[O-])cc3)CC2)c(=O)c2ccc(C)nc21`: the EC50 was 21.6 µM (active).

Test system in the next assay: not listed separately
In words: Luminescence Cell-Based Dose Response HTS to Identify Inhibitors of 5'UTR Stem-Loop Driven Prion Protein mRNA Translation in H4 Neuroglioblastoma Cells. [Related pubchem assays: 1827 (Project Summary), 1813 (Primary HTS)]. The format is functional.
Details: not given
On to `CCn1cc(C(=O)N2CCN(c3ccc([N+](=O)[O-])cc3)CC2)c(=O)c2ccc(C)nc21`, for which the EC50 is reported as > 120 µM (not active).

Test system in a further assay: not listed separately
In words: inhibitors of intracellular T. cruzi replication, confirmation, NIH3T3 host cells, beta-gal luminescence (AID 2044).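 Further: intracellular parasites grown in NIH/3T3 mouse fibroblasts as host cells; luminescent beta-galactosidase reporter signal from transgenic T. cruzi replicating inside host cells; inhibitors lower the luminescence signal.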 Type of assay: functional, cell-based.
Details: not given
Turning to `Cc1ccc(-n2cnn(-c3ccc([N+](=O)[O-])cc3[N+](=O)[O-])c2=O)cc1`, the EC50 is 1.54 µM (active).

Test system in a further assay: not listed separately
In words: cytotoxicity toward NIH3T3 fibroblasts, dose response, counter-screen, cell-based, ATP luminescence, mouse fibroblasts (AID 2010).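 Further: cells exposed to compound for about 90 hours before reading.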 The format is functional.
Details: not given
On to `Cc1ccc(-n2cnn(-c3ccc([N+](=O)[O-])cc3[N+](=O)[O-])c2=O)cc1`, for which the EC50 is on record as > 60 µM (not active).

Test system in another assay: not listed separately
In words: Luminescence Cell-Based Dose Retest to Confirm Inhibitors of Cancer Stem Cells. [Related pubchem assays (depositor defined):AID2717, AID2721]. Type of assay: functional. Conditions: Homo sapiens.
As to `CN1C(=O)/C(=C/c2cc(N=Nc3ccccc3)ccc2O)SC1=S`, the AC50 (usually the midpoint of the concentration-response curve, whichever way the signal moves) was 644 nM (active).

In another assay the target is Nonstructural protein 1 (Influenza A virus, UniProt Q194T2).
Nonstructural protein 1, sequence (Q194T2 whole entry): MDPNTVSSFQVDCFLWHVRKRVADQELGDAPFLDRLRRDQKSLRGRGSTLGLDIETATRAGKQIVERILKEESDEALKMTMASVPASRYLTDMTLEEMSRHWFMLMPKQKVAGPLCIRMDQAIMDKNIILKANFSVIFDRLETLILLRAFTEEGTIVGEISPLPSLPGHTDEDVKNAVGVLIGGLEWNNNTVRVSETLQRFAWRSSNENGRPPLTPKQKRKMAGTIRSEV
Test: not given
The format is functional, Influenza A virus (A/California/07/2009(H1N1)).
Details: not given
For the compound `COc1cc(OC)c2ccc(=O)oc2c1C(CCN1CCN(c2ccccc2)CC1)c1ccc(N(C)C)cc1` (centres undefined), the IC50 is 32.5 µM (active).

Regarding `CCOC(=O)N1CCN(C2=C(NS(=O)(=O)c3ccc(C)cc3)C(=O)c3ccccc3C2=O)CC1`, the IC50 was 21.5 µM (active).

Regarding `Cc1ccc(-n2cnn(-c3ccc([N+](=O)[O-])cc3[N+](=O)[O-])c2=O)cc1`, the IC50 was > 100 µM (active).

Regarding `O=C(c1ccc2[nH]c3c(c2c1)CCCC3)N1CCN(c2ccc(F)cc2)CC1`, the IC50 is > 100 µM (active).

`CN1C(=O)/C(=C/c2cc(N=Nc3ccccc3)ccc2O)SC1=S`: the IC50 is 14.5 µM (active).

In the case of `O=C(CSc1ccc(-c2ccccn2)nn1)NCc1ccc(Cl)cc1`, the IC50 was 41.9 µM (active).

Regarding `COc1ccc(N2CCN(C(=O)CCC(=O)N3CCOc4ccc(Cl)cc43)CC2)cc1`, the IC50 is > 100 µM (active).

A further assay relates to H9c2. In words: cells. The format is functional, cell-based. Conditions: Rattus norvegicus, H9c2, Myocardium.
With `CCCN(CC(=O)Nc1ccc(F)c(F)c1F)C(=O)CCc1nc(O)c2ccccc2n1`, the IC50 was 9.51 µM (active).

`COc1ccc(NC(=O)c2cc3c(=O)n(C)c4ccccc4c3n2C)cc1OC`: the IC50 was > 79 µM (inactive).

On to `O=C(CSc1nnc(-c2cccnc2)n1Cc1ccco1)c1ccccc1`, for which the IC50 was 32.4 µM (inactive).

Regarding `Oc1nc2cccc(F)c2n2cccc12`, the IC50 was > 79 µM (inactive).

As to `COc1ccc(C(=O)COC(=O)C(CCCCN2C(=O)C3C4C=CC(C4)C3C2=O)N2C(=O)C3C4C=CC(C4)C3C2=O)cc1` (centres undefined), the IC50 is > 79 µM (inactive).

On to `CCCCn1nc(NC(=O)c2cccs2)c2cc3ccccc3nc21`, for which the IC50 is > 79 µM (inactive).

Regarding `C/C(=N\NC(=O)c1ccccc1-n1cccc1)c1ccccn1`, the IC50 was 38.8 µM (inactive).

With `COC(=O)/C(=C(O)\C=C\c1ccccc1[N+](=O)[O-])c1nc2ccccc2[nH]1`, the IC50 was > 79 µM (inactive).

A further assay addresses T1, Corticotropin-releasing factor receptor 2/Corticotropin-releasing factor-binding protein (Homo sapiens, UniProt P24387+Q13324).
T1 sequence (Q13324 whole entry): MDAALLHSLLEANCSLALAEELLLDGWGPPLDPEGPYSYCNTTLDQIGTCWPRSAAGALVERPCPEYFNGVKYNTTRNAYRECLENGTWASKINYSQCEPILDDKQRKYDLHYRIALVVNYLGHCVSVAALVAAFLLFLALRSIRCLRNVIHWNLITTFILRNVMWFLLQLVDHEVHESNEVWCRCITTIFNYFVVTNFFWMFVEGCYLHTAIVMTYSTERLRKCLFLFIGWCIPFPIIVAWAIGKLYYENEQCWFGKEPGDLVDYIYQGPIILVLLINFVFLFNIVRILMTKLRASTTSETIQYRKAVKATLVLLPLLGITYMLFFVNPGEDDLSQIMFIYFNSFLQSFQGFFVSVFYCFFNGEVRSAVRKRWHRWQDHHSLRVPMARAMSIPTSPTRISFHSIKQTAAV
T1 sequence (P24387 whole entry): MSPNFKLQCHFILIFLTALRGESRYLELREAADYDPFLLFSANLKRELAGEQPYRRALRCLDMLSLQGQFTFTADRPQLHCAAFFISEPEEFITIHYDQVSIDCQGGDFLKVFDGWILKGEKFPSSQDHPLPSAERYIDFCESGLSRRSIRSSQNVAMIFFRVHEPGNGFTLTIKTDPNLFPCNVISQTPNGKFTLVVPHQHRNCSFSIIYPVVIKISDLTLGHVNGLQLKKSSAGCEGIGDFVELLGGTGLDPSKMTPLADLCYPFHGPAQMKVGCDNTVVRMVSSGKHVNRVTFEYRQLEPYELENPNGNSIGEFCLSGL
Put plainly: Dose Response confirmation of uHTS hits for small molecule antagonists of the CRF-binding protein and CRF-R2 receptor complex. Conditions: read-out: IC50_Mean. Type of assay: functional.
With `CC(=O)Nc1ccc(S(=O)(=O)N2CCN(c3nnnn3-c3ccccc3)CC2)cc1`, the IC50 was > 47.1 µM (inactive).

As to `O=C1CC(c2ccccc2)CN1S(=O)(=O)c1ccccc1` (centres undefined), the IC50 was > 47.1 µM (inactive).

Take `Cc1c(N2C(=O)C3C4C=CC(C5CC45)C3C2=O)c(=O)n(-c2ccccc2)n1C` (centres undefined): the IC50 was > 47.1 µM (inactive).

Regarding `N#CCc1ccc(NS(=O)(=O)c2cccs2)cc1`, the IC50 was > 47.1 µM (inactive).

For `Cc1ccc(CCNC(=O)C2CCCN(S(=O)(=O)N3CC(C)CC(C)C3)C2)cc1` (centres undefined), the IC50 was > 47.1 µM (inactive).

`Cc1ccc(CN(C)C(=O)CCc2c[nH]c3ccccc23)o1`: the IC50 was > 47.1 µM (inactive).

Take `CC1CCCC(C)N1C(=O)COC(=O)COc1ccc(C#N)cc1` (centres undefined): the IC50 is > 47.1 µM (inactive).

For a further assay, the target named is T1, Corticotropin-releasing factor receptor 2/Corticotropin-releasing factor-binding protein. Put plainly: activators of CRF receptor 2 with binding protein – uHTS hits, confirmation (AID 602473). Conditions: read-out: EC50_Mean. Type of assay: functional.
Consider `CC(=O)Nc1ccc(S(=O)(=O)N2CCN(c3nnnn3-c3ccccc3)CC2)cc1`, for which the EC50 was > 53 µM (inactive).

As for `O=C1CC(c2ccccc2)CN1S(=O)(=O)c1ccccc1` (centres undefined), the EC50 was > 53 µM (inactive).

As for `Cc1c(N2C(=O)C3C4C=CC(C5CC45)C3C2=O)c(=O)n(-c2ccccc2)n1C` (centres undefined), the EC50 was > 53 µM (inactive).

For the compound `N#CCc1ccc(NS(=O)(=O)c2cccs2)cc1`, the EC50 was > 53 µM (inactive).

Take `Cc1ccc(CCNC(=O)C2CCCN(S(=O)(=O)N3CC(C)CC(C)C3)C2)cc1` (centres undefined): the EC50 is > 53 µM (inactive).

Turning to `Cc1ccc(CN(C)C(=O)CCc2c[nH]c3ccccc23)o1`, the EC50 is > 53 µM (inactive).

As for `CC1CCCC(C)N1C(=O)COC(=O)COc1ccc(C#N)cc1` (centres undefined), the EC50 is > 53 µM (inactive).

Test system in a further assay: not listed separately
Put plainly: P. falciparum Dd2 growth inhibitors, dose response, SYBR Green, cherry-picked samples (AID 1159567). The format is functional, cell-based.
Details: not given
As to `C[C@@H]1CN([C@H](C)CO)C(=O)c2cccc(NC(=O)Nc3cccc4ccccc34)c2O[C@H]1CN(C)C(=O)NC1CCCCC1`, the AC50 is 4.98 µM (active).

`C[C@@H]1CN([C@@H](C)CO)C(=O)Cc2cc(NC(=O)NC3CCCCC3)ccc2O[C@H]1CN(C)C(=O)Nc1cccc2ccccc12`: the AC50 is 5.11 µM (active).

Consider `CN(C)c1ccc2c(c1)[C@@H]1C[C@@H](CC(=O)NCc3cc(F)ccc3F)O[C@@H](CO)[C@@H]1O2`, for which the concentration at half-maximal activity (AC50) is 13.3 µM (active).
